Reference: patent US10260089B2, “Compositions and methods for recognition of RNA using triple helical peptide nucleic acids” (The Research Foundation for the State University of New York, priority 2012, dated 2019)
Several values for one entry are separate records, joined by “and”; a condition that tells them apart may be missing. Equal entries are not always repeated. Ends that are not written are not given here.

Key:
[1] = cited from earlier work
[2] = system: ribosomal A-site model RNA hairpin HRP5; assay: ITC binding to human ribosomal A-site model RNA hairpin HRP5 (Example 3); conditions: sodium acetate buffer (pH 5.5)
[3] = system: ribosomal A-site model RNA hairpin HRP6; assay: ITC binding to bacterial ribosomal A-site model RNA hairpin HRP6 (Example 3); design: species or system Mycobacterium tuberculosis; conditions: sodium acetate buffer (pH 5.5)
RNA hairpin HRP2 (A-U) [4] = assay: ITC binding of PNA and GPNA to RNA hairpin HRP2 (Example 3); conditions: for -ΔG / -ΔH / -ΔS: acetate pH 5.5
Method: (§1) Isothermal Titration calorimetry. In a typical ITC experiment, an RNA hairpin solution (0.95 mL, […]) in acetate buffer [100 mM sodium acetate and 1.0 mM EDTA (pH 5.5)] was titrated with a PNA solution (50×5 μL, […]) using a Nano ITC G2 (TA Instruments) calorimeter. For full experimental details and data, see the Supporting Information. The titration data were analyzed using NanoAnalyze (TA Instruments) using an independent model to obtain the fitting graph and thermodynamic binding data (Table 7).
To gain more insight into different binding modes, guanidine-modified variants of hexamer CTCTTC (PNA4) were prepared and studied their binding to HRP2. […] While there was very little dependence on the number of modifications in the D series (entries 7-9), in the L series (entries 10-12) the affinity appeared to decrease somewhat with an increasing number of guanidine modifications.

RNA hairpin HRP1 (G-C) [5] = assay: ITC binding of PNA and GPNA to RNA hairpin HRP1 (Example 3); conditions: 37° C., 2 mM MgCl2, 90 mM KCl, 10 mM NaCl, 50 mM potassium phosphate (pH 7.4)
RNA hairpin HRP4 (U-A) = assay: ITC binding of PNA and GPNA to RNA hairpin HRP4 (Example 3); conditions: sodium acetate buffer (pH 5.5)
Method: as §1
(§2) Next the sequence selectivity of binding of GPNA1 to all four RNA hairpins having a variable central base pair [HRP1-HRP4 (FIGS. 6 and 10)] was checked.

RNA hairpin HRP3 (C-G) = assay: ITC binding of PNA and GPNA to RNA hairpin HRP3 (Example 3); conditions: sodium acetate buffer (pH 5.5)
Method: as §1, §2

RNA hairpin HRP1 (G-C) [6] = assay: ITC binding of PNA and GPNA to RNA hairpin HRP1 (Example 3); conditions: for Ka: 100 mM sodium acetate and 1.0 mM EDTA (pH 5.5); for -ΔG / -ΔH / -ΔS: acetate pH 5.5
Method: as §1
The guanidine-modified PNA oligomers [GPNA (FIG. 10)] were made using the standard Fmoc synthesis protocols on the Expedite 8909 synthesizer and purified by reverse-phase high-performance liquid chromatography. […] To allow direct comparison, the same GPNA sequences were prepared (FIG. 10), like the PNA used in previous study of triple-helix formation with double-helical RNA. The binding of GPNA to RNA hairpin (HRP1) was studied using isothermal titration calorimetry [ITC (FIG. 11)]. […] Formation of the complex was further confirmed using circular dichroism (CD) spectroscopy. […] Addition of 4.5 equiv (conditions mimicking the end point of ITC titration) of D-GPNA1 and L-GPNA1 to HRP1 induced a decrease in the magnitude of the CD signal at 240-250 nm, which was clearly visible in the difference spectra. However, a significant increase around 280 nm was not observed. […] Overall, the CD spectra confirmed the formation of GPNA-RNA complexes.

DNA version of HRP1 = assay: ITC binding of GPNA to a DNA version of HRP1 (Example 3); conditions: acetate pH 5.5
Method: as §1
Binding of D-GPNA1 to the HRP1 hairpin, consistent with, made of deoxynucleotides (DNA version of HRP1) was weaker by ˜1 order of magnitude (cf., entries 2 and 4). In contrast, the affinity of L-GPNA1 for either the RNA or DNA hairpin was practically the same (cf., entries 3 and 5). Under physiologically relevant conditions [37° C., in 2 mM MgCl2, 90 mM KCl, 10 mM NaCl, and 50 mM potassium phosphate (pH 7.4)], no binding of D-GPNA1 to HRP1 was observed. The sequence of PNA3 was symmetric and thus provided optimal binding for formation of both a parallel triple helix and an antiparallel duplex, as required for triplex invasion (FIGS. 12A-12C).

RNA hairpin HRP2 (A-U) [7] = assay: ITC binding of PNA and GPNA to RNA hairpin HRP2 (Example 3); conditions: experiment of entry 13 repeated in acetate buffer at pH 7.3
[8] = 100 mM sodium acetate and 1.0 mM EDTA (pH 5.5)

Nc1cc[nH]c(=O)n1 [cytosine]
pKa [1]: ~4.5

H-CCCTPCTT (cysteine pairing not given here) [PNA13]
Average association constants Ka, H. Sapiens (HRP5) [2]: NB[b] (No binding; Ka < 10^3 M^−1.) | Average association constants Ka, M. tuberculosis (HRP6) [3]: 1.5e+06 M⁻¹

NH2-CCCTGCTT [PNA10]
Average association constants Ka, H. Sapiens (HRP5) [2]: 400000 M⁻¹ | Average association constants Ka, M. tuberculosis (HRP6) [3]: 1.2e+06 M⁻¹

NH2-CCCTL-ArgGCTL-ArgT [GPNA10]
Average association constants Ka, H. Sapiens (HRP5) [2]: 2.8e+06 M⁻¹ | Average association constants Ka, M. tuberculosis (HRP6) [3]: 500000 M⁻¹

NH2-CCCTPexCTT [PNA14]
Average association constants Ka, H. Sapiens (HRP5) [2]: NB[b] (No binding; Ka < 10^3 M^−1.) | Average association constants Ka, M. tuberculosis (HRP6) [3]: 2e+06 M⁻¹

NH2-CCTGCTT [PNA11]
Average association constants Ka, H. Sapiens (HRP5) [2]: 40000 M⁻¹ | Average association constants Ka, M. tuberculosis (HRP6) [3]: 200000 M⁻¹

NH2-CTCTD-ArgTC [D-GPNA2]
Ka (RNA hairpin HRP2 (A-U) [4]; [8]): 500000 M⁻¹ | -ΔG (RNA hairpin HRP2 (A-U) [4]): 7.8 kcal/mol | -ΔH (RNA hairpin HRP2 (A-U) [4]): 70.0 kcal/mol | -ΔS (RNA hairpin HRP2 (A-U) [4]): 209 eu

NH2-CTCTL-ArgTC [L-GPNA2]
Ka (RNA hairpin HRP2 (A-U) [4]; [8]): 1.8e+06 M⁻¹ | -ΔG (RNA hairpin HRP2 (A-U) [4]): 8.5 kcal/mol | -ΔH (RNA hairpin HRP2 (A-U) [4]): 39.6 kcal/mol | -ΔS (RNA hairpin HRP2 (A-U) [4]): 104 eu

NH2-CTD-ArgCCTD-ArgC [D-GPNA1]
binding to HRP1 under physiologically relevant conditions (RNA hairpin HRP1 (G-C) [5]): no binding | Average association constants Ka, HRP4 (U-A) (RNA hairpin HRP4 (U-A)): 1.3e+06 M⁻¹ | Average association constants Ka, HRP3 (C-G) (RNA hairpin HRP3 (C-G)): 700000 M⁻¹ | Ka (RNA hairpin HRP2 (A-U) [4]; [8]): 300000 M⁻¹ | Ka (RNA hairpin HRP1 (G-C) [6]): 4.6 ± 1.6 ×10^6 M^−1 and 4.6 ×10^6 M^−1 | -ΔG (RNA hairpin HRP1 (G-C) [6]): 9.1 ± 0.2 kcal/mol | -ΔH (RNA hairpin HRP1 (G-C) [6]): 27.3 ± 2.5 kcal/mol | -ΔS (RNA hairpin HRP1 (G-C) [6]): 61 ± 9 eu | -ΔG (DNA version of HRP1): 7.7 kcal/mol | -ΔH (DNA version of HRP1): 29.1 kcal/mol | -ΔS (DNA version of HRP1): 72 eu | Ka (DNA version of HRP1): 400000 M⁻¹

NH2-CTD-ArgCTD-ArgTD-ArgC [D-GPNA4]
Ka (RNA hairpin HRP2 (A-U) [4]; [8]): 600000 M⁻¹ | -ΔG (RNA hairpin HRP2 (A-U) [4]): 7.9 kcal/mol | -ΔH (RNA hairpin HRP2 (A-U) [4]): 22.9 kcal/mol | -ΔS (RNA hairpin HRP2 (A-U) [4]): 50 eu

NH2-CTD-ArgCTTD-ArgC [D-GPNA3]
Ka (RNA hairpin HRP2 (A-U) [4]; [8]): 500000 M⁻¹ | -ΔG (RNA hairpin HRP2 (A-U) [4]): 7.8 kcal/mol | -ΔH (RNA hairpin HRP2 (A-U) [4]): 41.8 kcal/mol | -ΔS (RNA hairpin HRP2 (A-U) [4]): 114 eu

NH2-CTD-ArgTCTD-ArgC [D-GPNA6]
Ka (RNA hairpin HRP2 (A-U) [4]; [8]): 5e+06 M⁻¹ | -ΔG (RNA hairpin HRP2 (A-U) [4]): 9.1 kcal/mol | -ΔH (RNA hairpin HRP2 (A-U) [4]): 13.4 kcal/mol | -ΔS (RNA hairpin HRP2 (A-U) [4]): 14 eu

NH2-CTD-ArgTD-ArgCTD-ArgC [D-GPNA7]
Ka (RNA hairpin HRP2 (A-U) [4]; [8]): 0.4 ± 0.01 ×10^6 M^−1 | -ΔG (RNA hairpin HRP2 (A-U) [4]): 7.6 ± 0.0 kcal/mol | -ΔH (RNA hairpin HRP2 (A-U) [4]): 25.8 ± 3.7 kcal/mol | -ΔS (RNA hairpin HRP2 (A-U) [4]): 61 ± 13 eu

NH2-CTGCTT [PNA12]
Average association constants Ka, H. Sapiens (HRP5) [2]: 60000 M⁻¹ | Average association constants Ka, M. tuberculosis (HRP6) [3]: 200000 M⁻¹

NH2-CTL-ArgCCTL-ArgC [L-GPNA1]
Average association constants Ka, HRP4 (U-A) (RNA hairpin HRP4 (U-A)): 400000 M⁻¹ | Average association constants Ka, HRP3 (C-G) (RNA hairpin HRP3 (C-G)): 600000 M⁻¹ | Ka (RNA hairpin HRP2 (A-U) [4]; [8]): 800000 M⁻¹ | Ka (RNA hairpin HRP1 (G-C) [6]): 2.2 ± 1.6 ×10^6 M^−1 and 2.2 ×10^6 M^−1 | -ΔG (RNA hairpin HRP1 (G-C) [6]): 8.6 ± 0.5 kcal/mol | -ΔH (RNA hairpin HRP1 (G-C) [6]): 24.2 ± 9.6 kcal/mol | -ΔS (RNA hairpin HRP1 (G-C) [6]): 53 ± 34 eu | -ΔG (DNA version of HRP1): 8.7 kcal/mol | -ΔH (DNA version of HRP1): 21.0 kcal/mol | -ΔS (DNA version of HRP1): 41 eu | Ka (DNA version of HRP1): 2.5e+06 M⁻¹

NH2-CTL-ArgCTL-ArgTL-ArgC [L-GPNA4]
Ka (RNA hairpin HRP2 (A-U) [4]; [8]): 500000 M⁻¹ | -ΔG (RNA hairpin HRP2 (A-U) [4]): 7.8 kcal/mol | -ΔH (RNA hairpin HRP2 (A-U) [4]): 61.6 kcal/mol | -ΔS (RNA hairpin HRP2 (A-U) [4]): 181 eu

NH2-CTL-ArgCTTL-ArgC [L-GPNA3]
Ka (RNA hairpin HRP2 (A-U) [4]; [8]): 800000 M⁻¹ | -ΔG (RNA hairpin HRP2 (A-U) [4]): 8.0 kcal/mol | -ΔH (RNA hairpin HRP2 (A-U) [4]): 58.8 kcal/mol | -ΔS (RNA hairpin HRP2 (A-U) [4]): 170 eu

NH2-CTL-ArgGCTT [GPNA12]
Average association constants Ka, H. Sapiens (HRP5) [2]: 800000 M⁻¹ | Average association constants Ka, M. tuberculosis (HRP6) [3]: 400000 M⁻¹

NH2-CTL-ArgTL-ArgCTL-ArgC [L-GPNA7]
Ka (RNA hairpin HRP2 (A-U) [4]; [8]): 3.8 ± 0.1 ×10^6 M^−1 | -ΔG (RNA hairpin HRP2 (A-U) [4]): 8.9 ± 0.3 kcal/mol | -ΔH (RNA hairpin HRP2 (A-U) [4]): 13.0 ± 7.3 kcal/mol | -ΔS (RNA hairpin HRP2 (A-U) [4]): 14 ± 25 eu

NH2-CTTD-ArgCTC [D-GPNA5]
Ka (RNA hairpin HRP2 (A-U) [4]; [8]): 1.05e+07 M⁻¹ | -ΔG (RNA hairpin HRP2 (A-U) [4]): 9.6 kcal/mol | -ΔH (RNA hairpin HRP2 (A-U) [4]): 19.8 kcal/mol | -ΔS (RNA hairpin HRP2 (A-U) [4]): 34 eu | Ka (RNA hairpin HRP2 (A-U) [4]; pH 5.5, antiparallel GPNA): ~10^7 | binding to HRP2 in acetate buffer at pH 7.3 (RNA hairpin HRP2 (A-U) [7]): no binding

NH2CTL-ArgGCTL-ArgT [GPNA13]
Average association constants Ka, H. Sapiens (HRP5) [2]: 8.1e+06 M⁻¹ | Average association constants Ka, M. tuberculosis (HRP6) [3]: 2.9e+06 M⁻¹
